# Measurements from patent publication US10537127B2, “Organic compounds” (GIVAUDAN SA, priority 2013, dated 2020).
# Assay: Beef bouillon taste evaluation by a panel of experienced tasters
# Settings: 40 ppb dosed to beef bouillon made from bouillon cubes; versus reference bouillon
# Protocol: A beef bouillon was prepared using bouillon cubes obtained from a local supermarket.
row,Structure (SMILES),taste of the bouillon compared with the reference (panel agreement)
1,"O=C(O)CCCCCCCC(=O)N1CCCC1C(=O)O (stereo not drawn) [Example 2, 1-(8-Carboxyoctanoyl)pyrrolidine-2-carboxylic acid]","more salt impact, and more umami taste than the reference"
2,"O=C(O)CCCCCCCC(=O)NC(Cc1c[nH]c2ccccc12)C(=O)O (stereo not drawn) [Example 1, 9-((1-Carboxy-2-(1H-indol-3-yl)ethyl)amino)-9-oxononanoic acid]","more umami, more salty and more full than the reference"
3,"O=C(O)CCCCCCCC(=O)NCCCC(=O)O [Example 3, 9-((3-Carboxypropyl)amino)-9-oxononanoic acid]",more salty and had more “bite” than the reference
